Source: patent publication US8497349B2, “Use of multivalent synthetic ligands of surface nucleolin for treating cancer or inflammation” (Centre National de la Recherche Scientifique (CNRS), priority 2006, dated 2013)
Side chains are listed from the residue outwards. Peptide text beside a SMILES is read from it. * marks the point of attachment. X1 = NCCCC[C@H](N)CN1CCC[C@H]1C(=O)*

Experiments:
surface nucleolin = molecular target: T1, surface nucleolin (Homo sapiens, UniProt P19338); test: Activity of surface nucleolin in HeLa P4 cells; format: cell-based
T1 construct: endogenous in cells; host or cells: HeLa P4 cells
T1 sequence (P19338 whole entry): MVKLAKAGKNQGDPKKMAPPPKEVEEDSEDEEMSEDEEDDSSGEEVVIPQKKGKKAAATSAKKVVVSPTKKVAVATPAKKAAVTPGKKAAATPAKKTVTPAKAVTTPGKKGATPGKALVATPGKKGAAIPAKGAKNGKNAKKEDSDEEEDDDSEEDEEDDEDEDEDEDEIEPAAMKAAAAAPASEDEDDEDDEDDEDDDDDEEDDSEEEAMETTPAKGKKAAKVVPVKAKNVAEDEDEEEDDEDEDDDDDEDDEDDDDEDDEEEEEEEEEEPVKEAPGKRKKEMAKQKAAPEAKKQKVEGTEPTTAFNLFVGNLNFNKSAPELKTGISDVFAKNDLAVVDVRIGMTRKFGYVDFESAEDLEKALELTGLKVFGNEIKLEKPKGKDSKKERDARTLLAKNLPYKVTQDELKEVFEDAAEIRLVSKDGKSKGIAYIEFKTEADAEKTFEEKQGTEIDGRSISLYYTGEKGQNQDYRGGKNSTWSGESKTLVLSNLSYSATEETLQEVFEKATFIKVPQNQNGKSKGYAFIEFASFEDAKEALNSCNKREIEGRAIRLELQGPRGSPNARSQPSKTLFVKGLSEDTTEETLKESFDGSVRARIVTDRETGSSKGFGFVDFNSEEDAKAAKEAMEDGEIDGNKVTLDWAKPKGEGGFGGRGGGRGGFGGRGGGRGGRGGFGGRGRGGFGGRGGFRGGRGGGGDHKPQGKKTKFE
Procedure: FIG. 15. Nucant 6 and Nucant 7 show better anti-surface nucleolin activity than HB-19. ID50: concentration in μM which inhibits surface nucleolin by 50%. ID95: concentration in μM which inhibits surface nucleolin by 95%.
The activity of surface nucleolin was tested in HeLa P4 cells using the technique we have described previously (13).

NIH-3T3 cells = test: Proliferation of NIH-3T3 cells stimulated by 5% foetal calf serum (tritiated thymidine incorporation); format: cell-based; conditions: non-stimulated NIH-3T3 cells
Procedure: FIG. 5. Effect of HB-19 on the proliferation of NIH-3T3 cells stimulated by 0.2 nM FGF-2 (A) or by 5% foetal calf serum (B). Quiescent NIH-3T3 cells are stimulated by FGF-2 or by 5% serum in the presence or not of HB19 at the concentrations indicated. After 24 hours of incubation, cell proliferation was determined by measuring the incorporation of tritiated thymidine. The results are given as a percentage with respect to the control stimulated by HARP (100%). MSD (threshold), (**p<0.01 and ***p<0.001).
FIG. 14. Effect of NUCANT 3, 6 and 7 on the proliferation of NIH-3T3 cells stimulated by 5% FCS. […] After 24 hours of incubation, cell proliferation was determined by measuring the incorporation of tritiated thymidine. […]
The effect of Nucant 3 on the proliferation of NIH-3T3 cells treated by 5% of FCS was also compared to that of compound HB-19. […] After 24 hours in incubation, cell proliferation is determined by measuring the incorporation of tritiated thymidine as described earlier.
The effect of hexavalent compounds Nucant 6 and Nucant 7 on the proliferation of NIH-3T3 cells triggered by 5% FCS was compared with that of pentavalent compound HB-19. […] After 24 hours of incubation, cell proliferation was determined by measuring the incorporation of tritiated thymidine as described above.

MDA-MB231 tumours = test: Tumour growth in MDA-MB231 xenograft model in athymic mice; format: in vivo, athymic mice (nude/nude)
Procedure: FIG. 9. Effect of HB-19 on tumour growth in an MDA-MB231 xenograft model. Human mammary carcinoma MDA-MB231 cells were injected subcutaneously athymic mice (nude). When the tumour reached a volume of 200 mm^3, mice were treated by subcutaneous route as shown in graph in A. B. Observation and measurement of tumours in mice sacrificed at day 40. C. Tumour weight in mice sacrificed at day 40.
FIG. 10. Effect of HB-19 on tumour growth in an MDA-MB231 xenograft model. Changes in tumour growth. Intraperitoneal (IP) or subcutaneous (SC) injections.
Groups of 4 athymic mice (nude/nude) were injected in the flank with 2×10^6 cells. When tumour volume reached at least 200 mm^3, mice were either treated or not by injection in the tumour (peritumoral or subcutaneous route) of 100 μl every two days of a PBS solution (control group) or HB-19 solution (5 mg/kg) or a commonly used clinical agent, tamoxifen (also called […], 10 mg/kg). Tumour size was measured on days 7, 14, 21, 28, 34 and 40 using a calliper.
In another experiment, HB19 (5 mg/kg) was administered by intraperitoneal route (IP) and peritumoral route (SC) (FIG. 10).

[1] = cited from earlier work
[2] = 10 mg/kg, mice sacrificed after 40 days of treatment

## CC(=O)N[C@@H](CCCCNC(=O)[C@H](CCCNC(=N)N)NC(=O)[C@@H]1CCCN1C[C@@H](N)CCCCN)C(=O)N[C@@H](C)C(=O)N[C@@H](CCCCNC(=O)[C@H](CCCNC(=N)N)NC(=O)[C@@H]1CCCN1C[C@@H](N)CCCCN)C(=O)N1CCC[C@H]1C(=O)NCC(=O)N[C@@H](CCCCNC(=O)[C@H](CCCNC(=N)N)NC(=O)[C@@H]1CCCN1C[C@@H](N)CCCCN)C(=O)N[C@@H](C)C(=O)N[C@@H](CCCCNC(=O)[C@H](CCCNC(=N)N)NC(=O)[C@@H]1CCCN1C[C@@H](N)CCCCN)C(=O)N1CCC[C@H]1C(=O)NCC(=O)N[C@@H](CCCCNC(=O)[C@H](CCCNC(=N)N)NC(=O)[C@@H]1CCCN1C[C@@H](N)CCCCN)C(=O)N[C@@H](C)C(=O)N[C@@H](CCCCNC(=O)[C@H](CCCNC(=N)N)NC(=O)[C@@H]1CCCN1C[C@@H](N)CCCCN)C(=O)N1CCC[C@H]1C(=O)NCC(N)=O [Nucant 7] (Ac-K([Arg-X1])AK([Arg-X1])PGK([Arg-X1])AK([Arg-X1])PGK([Arg-X1])AK([Arg-X1])PG-NH2)
Surface nucleolin; M-HeLa, 0.8 μM
  inhibition at 0.8 µM: > 95%
Surface nucleolin; read-out: ID50 value (Inhibitory Dose at 50%), surface nucleolin activity
  IC50: < 0.1 µM
NIH-3T3 cells
  effect on non-stimulated cells (toxicity): No effect

## CC/C(=C(\c1ccccc1)c1ccc(OCCN(C)C)cc1)c1ccccc1 [tamoxifen]
MDA-MB231 tumours; 10 mg/kg every two days
  change of tumour volume from the start of treatment: did not change in a significant manner
MDA-MB231 tumours; [2]
  average weight of tumours: 0.06 g
  distribution of tumour weight: 0.006 to 0.22 g

## Avastin: anti-angiogenic agent
[1]; complement to chemotherapy (irinotecan/5-fluorouracile/leucovorin)
  survival: 20.3 months
[1]; complement to chemotherapy
  length of time during which the tumour did not grow: 10.6 months
